Where “and” joins values, the source holds several entries; their conditions need not be identical. Equal entries are not always repeated.
Tests used:
Assay in all cases: PDSP GPCR panel primary binding assays at 10 μM
Details in all cases: primary assay
[1] = target: T1, cloned human or rodent CNS receptors, channels, and transporters (PDSP panel) (Homo sapiens, UniProt P28566)
T1 construct: expressed in transfected cells
Experimental: (§1) GPCR panel: Screening against the receptors within the PDSP panel offers an assessment of off-target pharmacological activity at cloned human or rodent CNS receptors, channels, and transporters that could confound CNS-related phenotypes. A total of 46–47 primary binding assays were run in quadruplicate on these compounds at 10 μM, with follow-up secondary binding assays in 11-point dose-response in triplicate for select compounds versus select receptors. Secondary binding assays were executed for all receptors where test compound displaced an average of >50% of radio-labeled standard ligand. As an exception, no secondary assays were carried out for H3, PBR, or GABAA. […]

[2] = target: T2, cloned human or rodent CNS receptors, channels, and transporters (PDSP panel) (Rattus norvegicus, UniProt P16257)
T2 construct: expressed in transfected cells
Experimental: as §1

[3] = target: T3, cloned human or rodent CNS receptors, channels, and transporters (PDSP panel) (Homo sapiens, UniProt P11229)
T3 construct: expressed in transfected cells
T3 sequence (P11229 1-460): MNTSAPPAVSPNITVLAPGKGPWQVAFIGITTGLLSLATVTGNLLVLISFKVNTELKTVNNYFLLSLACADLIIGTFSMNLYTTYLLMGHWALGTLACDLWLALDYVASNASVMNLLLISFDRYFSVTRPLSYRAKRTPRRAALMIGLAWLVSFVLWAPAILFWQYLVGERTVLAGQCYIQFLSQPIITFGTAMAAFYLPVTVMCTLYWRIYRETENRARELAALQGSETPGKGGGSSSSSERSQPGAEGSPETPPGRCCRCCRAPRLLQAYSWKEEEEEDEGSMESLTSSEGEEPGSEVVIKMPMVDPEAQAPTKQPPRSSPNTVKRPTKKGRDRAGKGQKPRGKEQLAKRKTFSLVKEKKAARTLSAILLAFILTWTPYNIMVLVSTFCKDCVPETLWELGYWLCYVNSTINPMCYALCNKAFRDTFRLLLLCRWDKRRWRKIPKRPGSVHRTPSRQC
Experimental: as §1

[4] = target: T4, cloned human or rodent CNS receptors, channels, and transporters (PDSP panel) (Homo sapiens, UniProt P20309)
T4 construct: expressed in transfected cells
T4 sequence (P20309 whole entry): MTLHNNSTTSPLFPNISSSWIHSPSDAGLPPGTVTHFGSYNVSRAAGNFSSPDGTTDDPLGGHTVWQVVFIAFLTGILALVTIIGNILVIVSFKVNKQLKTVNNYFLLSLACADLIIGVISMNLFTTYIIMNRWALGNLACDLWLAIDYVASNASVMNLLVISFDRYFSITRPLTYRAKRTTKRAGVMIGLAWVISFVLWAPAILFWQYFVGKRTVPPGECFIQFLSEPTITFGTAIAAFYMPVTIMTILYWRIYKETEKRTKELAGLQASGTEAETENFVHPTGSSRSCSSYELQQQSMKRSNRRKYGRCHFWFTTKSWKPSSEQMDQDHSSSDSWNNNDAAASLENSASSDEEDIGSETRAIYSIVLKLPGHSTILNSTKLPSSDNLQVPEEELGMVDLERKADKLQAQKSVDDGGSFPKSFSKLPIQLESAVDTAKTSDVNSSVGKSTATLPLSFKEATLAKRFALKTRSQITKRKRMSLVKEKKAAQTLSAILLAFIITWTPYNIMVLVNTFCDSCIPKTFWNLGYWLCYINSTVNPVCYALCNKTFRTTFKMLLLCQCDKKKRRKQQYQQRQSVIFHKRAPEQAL
Experimental: as §1

[5] = target: T5, cloned human or rodent CNS receptors, channels, and transporters (PDSP panel) (Homo sapiens, UniProt P35372)
T5 construct: expressed in transfected cells
T5 sequence (P35372 whole entry): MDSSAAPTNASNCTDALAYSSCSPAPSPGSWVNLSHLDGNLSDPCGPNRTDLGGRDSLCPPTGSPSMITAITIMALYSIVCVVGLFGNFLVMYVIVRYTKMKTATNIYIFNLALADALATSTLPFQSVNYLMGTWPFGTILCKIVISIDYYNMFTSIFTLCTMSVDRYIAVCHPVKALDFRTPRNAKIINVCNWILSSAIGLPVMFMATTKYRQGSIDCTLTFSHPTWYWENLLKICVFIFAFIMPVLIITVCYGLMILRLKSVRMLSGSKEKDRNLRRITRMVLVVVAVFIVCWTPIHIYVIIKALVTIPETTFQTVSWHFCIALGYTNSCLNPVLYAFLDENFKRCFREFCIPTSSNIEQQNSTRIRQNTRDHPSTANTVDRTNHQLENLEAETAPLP
Experimental: as §1

[6] = target: T6, cloned human or rodent CNS receptors, channels, and transporters (PDSP panel) (Homo sapiens, UniProt P50406)
T6 construct: expressed in transfected cells
T6 sequence (P50406 whole entry): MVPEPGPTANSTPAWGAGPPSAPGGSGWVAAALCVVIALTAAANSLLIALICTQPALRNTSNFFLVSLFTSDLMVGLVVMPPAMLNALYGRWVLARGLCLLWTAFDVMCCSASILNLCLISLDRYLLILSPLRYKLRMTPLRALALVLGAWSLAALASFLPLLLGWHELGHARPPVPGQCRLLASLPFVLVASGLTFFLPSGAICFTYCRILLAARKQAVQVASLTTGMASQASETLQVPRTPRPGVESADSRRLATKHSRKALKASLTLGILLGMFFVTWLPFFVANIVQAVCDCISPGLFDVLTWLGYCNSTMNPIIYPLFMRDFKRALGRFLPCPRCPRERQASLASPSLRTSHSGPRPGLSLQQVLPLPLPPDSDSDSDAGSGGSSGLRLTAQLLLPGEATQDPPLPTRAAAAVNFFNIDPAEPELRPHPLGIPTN
Experimental: as §1

[7] = target: T7, cloned human or rodent CNS receptors, channels, and transporters (PDSP panel) (Homo sapiens, UniProt P08173)
T7 construct: expressed in transfected cells
T7 sequence (P08173 1-479): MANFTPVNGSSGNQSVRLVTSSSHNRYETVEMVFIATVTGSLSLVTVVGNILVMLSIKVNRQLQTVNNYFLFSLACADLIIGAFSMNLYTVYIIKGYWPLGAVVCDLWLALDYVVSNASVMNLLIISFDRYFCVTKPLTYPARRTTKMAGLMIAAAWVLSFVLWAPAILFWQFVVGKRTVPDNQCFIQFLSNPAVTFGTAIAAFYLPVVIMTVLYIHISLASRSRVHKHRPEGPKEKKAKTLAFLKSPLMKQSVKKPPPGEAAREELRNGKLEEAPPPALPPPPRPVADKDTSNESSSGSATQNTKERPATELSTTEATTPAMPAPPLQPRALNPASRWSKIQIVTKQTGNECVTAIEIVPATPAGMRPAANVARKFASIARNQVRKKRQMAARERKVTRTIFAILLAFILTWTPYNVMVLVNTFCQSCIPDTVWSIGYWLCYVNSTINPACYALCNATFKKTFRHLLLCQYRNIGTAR
Experimental: as §1

[8] = target: T8, cloned human or rodent CNS receptors, channels, and transporters (PDSP panel) (Homo sapiens, UniProt P35462)
T8 construct: expressed in transfected cells
T8 sequence (P35462 whole entry): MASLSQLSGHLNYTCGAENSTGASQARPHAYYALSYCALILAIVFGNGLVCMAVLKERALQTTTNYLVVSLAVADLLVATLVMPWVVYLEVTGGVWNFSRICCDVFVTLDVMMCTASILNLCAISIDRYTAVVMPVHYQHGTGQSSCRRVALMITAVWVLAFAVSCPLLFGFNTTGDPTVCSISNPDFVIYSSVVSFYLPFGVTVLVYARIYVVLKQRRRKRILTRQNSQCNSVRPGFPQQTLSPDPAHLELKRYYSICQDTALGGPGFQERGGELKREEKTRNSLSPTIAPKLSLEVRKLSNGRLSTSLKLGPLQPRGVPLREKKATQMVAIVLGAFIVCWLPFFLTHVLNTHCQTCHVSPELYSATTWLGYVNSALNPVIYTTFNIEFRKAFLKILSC
Experimental: as §1

T1 sequence (P28566 whole entry): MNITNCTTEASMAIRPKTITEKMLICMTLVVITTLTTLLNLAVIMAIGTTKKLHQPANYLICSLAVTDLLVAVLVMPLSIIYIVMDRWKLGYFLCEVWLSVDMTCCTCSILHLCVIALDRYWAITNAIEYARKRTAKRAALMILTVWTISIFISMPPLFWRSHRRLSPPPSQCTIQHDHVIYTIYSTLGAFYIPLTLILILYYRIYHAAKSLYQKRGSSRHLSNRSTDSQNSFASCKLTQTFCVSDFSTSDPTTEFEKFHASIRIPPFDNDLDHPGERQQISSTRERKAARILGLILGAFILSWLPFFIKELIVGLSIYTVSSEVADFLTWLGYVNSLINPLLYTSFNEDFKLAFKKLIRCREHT

MDL 28170 [UNC10302675A]
Mean % ([1]; 5-HT1E, mean inhibition): -6.22% | Inhibition 1 ([1]; 5-HT1E, replicate 1): -3.13% | Inhibition 2 ([1]; 5-HT1E, replicate 2): -5.37% | Inhibition 3 ([1]; 5-HT1E, replicate 3): -7.3% | Inhibition 4 ([1]; 5-HT1E, replicate 4): -9.09% | Mean % ([2]; PBR, mean inhibition): 14.47% and 16.31% | Inhibition 1 ([2]; PBR, replicate 1): 31.01% and 31.3% | Inhibition 2 ([2]; PBR, replicate 2): 3.06% and 12.16% | Inhibition 3 ([2]; PBR, replicate 3): 7.19% and 13.84% | Inhibition 4 ([2]; PBR, replicate 4): 16.6% and 7.94% | Mean % ([3]; M1, mean inhibition): -11.2% | Inhibition 1 ([3]; M1, replicate 1): -2.73% | Inhibition 2 ([3]; M1, replicate 2): -6.87% | Inhibition 3 ([3]; M1, replicate 3): -20.6% | Inhibition 4 ([3]; M1, replicate 4): -14.58% | Mean % ([4]; M3, mean inhibition): 3.62% | Inhibition 1 ([4]; M3, replicate 1): 10.69% | Inhibition 2 ([4]; M3, replicate 2): 6.89% | Inhibition 3 ([4]; M3, replicate 3): 8.89% | Inhibition 4 ([4]; M3, replicate 4): -11.99% | Mean % ([5]; MOR, mean inhibition): -2.22% | Inhibition 1 ([5]; MOR, replicate 1): 0.73% | Inhibition 2 ([5]; MOR, replicate 2): -3.1% | Inhibition 3 ([5]; MOR, replicate 3): -4.83% | Inhibition 4 ([5]; MOR, replicate 4): -1.67% | Mean % ([6]; 5-HT6, mean inhibition): -4.53% | Inhibition 1 ([6]; 5-HT6, replicate 1): 18.94% | Inhibition 2 ([6]; 5-HT6, replicate 2): -17.59% | Inhibition 3 ([6]; 5-HT6, replicate 3): -16% | Inhibition 4 ([6]; 5-HT6, replicate 4): -3.45% | Mean % ([7]; M4, mean inhibition): 7.01% | Inhibition 1 ([7]; M4, replicate 1): 5.86% | Inhibition 2 ([7]; M4, replicate 2): -14.36% | Inhibition 3 ([7]; M4, replicate 3): 13.67% | Inhibition 4 ([7]; M4, replicate 4): 22.85% | Mean % ([8]; D3, mean inhibition): -4.37% | Inhibition 1 ([8]; D3, replicate 1): 0.36% | Inhibition 2 ([8]; D3, replicate 2): 5.37% | Inhibition 3 ([8]; D3, replicate 3): -17.38% | Inhibition 4 ([8]; D3, replicate 4): -5.81%

CCCCNc1ncc2c(-c3ccc(CN4CCN(C)CC4)cc3)cn([C@H]3CC[C@H](O)CC3)c2n1 [UNC2025C, UNC2025]
Inhibition 1 ([1]; Receptor 5-HT1E, 10 μM): 4.71% | Inhibition 2 ([1]; Receptor 5-HT1E, 10 μM): -8.74% | Inhibition 3 ([1]; Receptor 5-HT1E, 10 μM): 0.13% | Inhibition 4 ([1]; Receptor 5-HT1E, 10 μM): -9.18% | Mean % ([1]; Receptor 5-HT1E, 10 μM, mean of Inhibition 1-4): -3.27% | Inhibition 4 ([2]; Receptor PBR, 10 μM): 12.81% and 23.25% | Inhibition 1 ([3]; Receptor M1, 10 μM): 58.8% | Inhibition 2 ([3]; Receptor M1, 10 μM): 42.24% | Inhibition 3 ([3]; Receptor M1, 10 μM): 30.2% | Inhibition 4 ([3]; Receptor M1, 10 μM): 36.41% | Mean % ([3]; Receptor M1, 10 μM, mean of Inhibition 1-4): 41.91% | Inhibition 1 ([4]; Receptor M3, 10 μM): -7.29% | Inhibition 2 ([4]; Receptor M3, 10 μM): -5.9% | Inhibition 3 ([4]; Receptor M3, 10 μM): -6.87% | Inhibition 4 ([4]; Receptor M3, 10 μM): 2.81% | Mean % ([4]; Receptor M3, 10 μM, mean of Inhibition 1-4): -4.31% | Inhibition 1 ([5]; Receptor MOR, 10 μM): 9.74% | Inhibition 2 ([5]; Receptor MOR, 10 μM): 12.91% | Inhibition 3 ([5]; Receptor MOR, 10 μM): 2.36% | Inhibition 4 ([5]; Receptor MOR, 10 μM): 6.67% | Mean % ([5]; Receptor MOR, 10 μM, mean of Inhibition 1-4): 7.92% | Inhibition 1 ([6]; Receptor 5-HT6, 10 μM): -20.29% | Inhibition 2 ([6]; Receptor 5-HT6, 10 μM): 0.2% | Inhibition 3 ([6]; Receptor 5-HT6, 10 μM): -8.54% | Inhibition 4 ([6]; Receptor 5-HT6, 10 μM): -2.02% | Mean % ([6]; Receptor 5-HT6, 10 μM, mean of Inhibition 1-4): -7.66% | Inhibition 1 ([7]; Receptor M4, 10 μM): 21.02% | Inhibition 2 ([7]; Receptor M4, 10 μM): 3.79% | Inhibition 3 ([7]; Receptor M4, 10 μM): -16.19% | Inhibition 4 ([7]; Receptor M4, 10 μM): 18.49% | Mean % ([7]; Receptor M4, 10 μM, mean of Inhibition 1-4): 6.78% | Inhibition 1 ([8]; Receptor D3, 10 μM): 18.68% | Inhibition 2 ([8]; Receptor D3, 10 μM): 25.04% | Inhibition 3 ([8]; Receptor D3, 10 μM): 10.39% | Inhibition 4 ([8]; Receptor D3, 10 μM): 7.11% | Mean % ([8]; Receptor D3, 10 μM, mean of Inhibition 1-4): 15.31%

Reference: paper PMC9005681, “Use of AD Informer Set compounds to explore validity of novel targets in Alzheimer's disease pathology” (Alzheimer's & Dementia : Translational Research & Clinical …, 2022)
